# Measured values reported in patent US6465647B1, “Oxygen, sulfur and nitrogen substituted cyclohexene and cyclohexane derivatives having retinoid-like biological activity” (Allergan, Inc., priority 1999, dated 2002).
# Test system: ornithine decarboxylase (ODC)
# Experiment: Ornithine decarboxylase (ODC) assay: inhibition of TPA induction of ODC activity
# Assay type: biochemical
# Conditions: concentration of the test compound which causes 60% inhibition in the ODC assay (TPA-induced ODC activity)
# Text: A classic measure of retinoic acid activity involves measuring the effects of retinoic acid on ornithine decarboxylase. The original work on the correlation between retinoic acid and a decrease in cell proliferation was done by Verma & Boutwell, Cancer Research, 1977, 37, 2196-2201. That reference discloses that ornithine decarboxylase (ODC) activity increased precedent to polyamine biosynthesis. It has been established elsewhere that increases in polyamine synthesis can be correlated or associated with cellular proliferation. Thus, if ODC activity could be inhibited, cell hyperproliferation could be modulated. Although all cases for ODC activity increases are unknown, it is known that 12-0-tetradecanoylphorbol-13-acetate (TPA) induces ODC activity. Retinoic acid inhibits this induction of ODC activity by TPA. […] “IC60” is that concentration of the test compound which causes 60% inhibition in the ODC assay. By analogy, “IC80”, for example, is that concentration of the test compound which causes 80% inhibition in the ODC assay.
# Table 1 discloses the activity of certain exemplary compounds of the invention in the above-described oinithine decarboxylase (ODC) assay.
Compound,IC60 (listed as Sa) [nM],IC60 [nM]
"CCOC(=O)c1ccc(C#C/C=C/C2=C(C)CCCC2OC(=O)C(C)C)cc1 (stereo not drawn) [Compound 5a, Ethyl (−)-(E)-4-(4-(6-iso-Butyryloxy-2-methylcyclohex-1-enyl)but-3-ene-1-ynyl)benzoate]",15.7,–
"CCOC(=O)c1ccc(C#C/C=C/C2=C(C)CCCC2OC(=O)C(C)C)cc1 (stereo not drawn) [Compound 5b, Ethyl (+)-(E)-4-(4-(6-iso-Butyryloxy-2-methyicyclohex-1-enyl)but-3-ene-1-ynyl)benzoate]",–,234
"CCOC(=O)c1ccc(C#C/C=C/C2=C(C)CCCC2OC(=O)C(C)(C)C)cc1 (single isomer, unassigned) [Compound 6a, Ethyl (−)-(E)-4-(4-(6-(2,2-Dimethylpropanoyl)oxy-2-methylcyclohex-1-enyl)but-3-ene-1-ynyl)benzoate]",–,5.1
"CCOC(=O)c1ccc(C#C/C=C/C2=C(C)CCCC2OC(=O)CC)cc1 (stereo not drawn) [Compound 4a, Ethyl (−)-(E)-4-(4-(6-Propionyloxy-2-methylcyclohex-1-enyl)but-3-en-1-ynyl)benzoate]",–,20.9
"CCOC(=O)C=C1CCCC(C)=C1C=CC#Cc1ccc(C(=O)OCC)cc1 [Compound 12, Ethyl 4-(4-(6-Ethoxycarbonylmethylene-2-methylcyclohex-1-enyl)but-3-en-1-ynyl)benzoate]",–,7.8
CCOC(=O)c1ccc(C#CC=CC2=C(C)CCCC2=NOC)cc1 [Compound 10],–,2.4
"CCOC(=O)c1ccc(C#C/C=C/C2=C(C)CCCC2OC(=O)C(C)(C)C)cc1 (single isomer, unassigned) [Compound 6b, Ethyl (+)-(E)-4-(4-(6-(2,2-Dimethylpropanoyl)oxy-2-methylcyclohex-1-enyl)but-3-ene-1-ynyl)benzoate]",–,124
CCOC(=O)c1ccc(C#CC=CC2=C(C)CCCC2=NOCc2ccccc2)cc1 [Compound 11],–,10.3
"CCOC(=O)c1ccc(C#C/C=C/C2=C(C)CCCC2OC(C)=O)cc1 (single isomer, unassigned) [Compound 3b, Ethyl (+)-(E)-4-(4-(6-Acetyloxy-2-methylcyclohex-1-enyl)but3-en-1-ynyl)benzoate]",–,4.3
"CCOC(=O)c1ccc(C#C/C=C/C2=C(C)CCCC2OC(C)=O)cc1 (single isomer, unassigned) [Compound 3a, Ethyl (−)-(E)-4-(4-(6-Acetyloxy-2-methylcyclohex-1-enyl)but-3-en-1-ynyl)benzoate]",–,0.52
"CCOC(=O)c1ccc(C#C/C=C/C2=C(C)CCCC2OC(=O)c2ccccc2)cc1 (stereo not drawn) [Compound 7a, Ethyl (−)-(E)-4-(4-(6-Benzoyloxy-2-methylcyclohex-1-enyl)but-3-ene-1-ynyl)benzoate]",–,8.6
